In brackets after ≈: the same amount, converted by molar mass. Where two headings read alike, the source gives them in different places. Non-standard residues stand in square brackets, D forms with d. Residues, ends and D or L forms follow the SMILES beside them. *: point of attachment. Hyp = O=C(O)[C@@H]1C[C@@H](O)CN1; hArg = N=C(N)NCCCC[C@H](N)C(=O)O; β3hR = N=C(N)NCCC[C@H](N)CC(=O)O; Orn = NCCC[C@H](N)C(=O)O; NHPr = CCCN*
Experiments:
[1] = mouse, serum, Half-life in 25% mouse serum, 25% aqueous mouse serum, 37° C., 75 μg/mL peptide
E. coli BL21 A1 = format: cell-based, Escherichia coli; details: BL21, 20 h
Summary of the method: (§1)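 Broth microdilution in 1% TSB with twofold peptide series, final 128 μg/mL to 62.5 ng/mL, against 5×10^6 bacteria/mL stock suspension added 1:1. Incubated 20 h at 37 °C, growth read by absorbance at 595 nm; MIC is the lowest concentration with no growth, determined in triplicate.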

M. luteus 10240 = experiment: Growth inhibition assay (microdilution MIC); format: cell-based, Micrococcus luteus; details: 10240, 20 h
Summary of the method: as §1

E. coli ATCC BAA-457 = details: ¼ Muller-Hinton medium
Experimental: (§2) The minimum inhibitory concentrations (MIC) of the antimicrobial peptides and peptide derivatives were determined in microdilution assays. These used a continuous peptide dilution in sterile flat-bottomed 96-well microtiter plates (polystyrene, Greiner Bio-One GmbH, Frickenhausen, Germany) and a total volume of 100 μL per well. The aqueous peptide or peptidomimetic solutions were diluted with 1% TSB water, to obtain a final concentration of 256 μg/mL. 50 μL of the peptide or peptidomimetic solution was pipetted into the first well of each series and stirred. From this solution, 50 μL was transferred to the second well, stirred and again 50 μL was transferred to the next well, and so on. A double dilution series is obtained, beginning at 256 μg/mL in the first well to 125 ng/mL in the twelfth well. The bacteria, e.g. E. coli BL21 A1, were cultured overnight at 37° C. in nutrient broth (NB, Carl Roth GmbH+Co. KG, Karlsruhe, Germany). 50 μL of a 5×10^6 bacteria/mL suspension in 1% TSB was added to each well of the microtiter plate and thus a final concentration of the peptides or peptidomimetics from 128 μg/mL (well 1) to 62.5 ng/mL (well 12) was established in each series. The plates were incubated at 37° C. for 20 h and then the absorption was measured at 595 nm with a TECAN microtiter plate spectrophotometer (Tecan Trading AG, Mannedorf, Switzerland). The MIC values of all peptides and peptidomimetics were determined in triplicate. Sterile water was used as negative control.
(§3) The tests were in this case carried out in Mueller-Hinton medium (¼ concentrated), which is equivalent to 1% TSB.

[2] = test system: K. pneumoniae K6 ATCC 700603; details: ATCC 700603
Experimental: as §2, §3

E. coli D31 J. Wilson = details: ¼ Muller-Hinton medium
Experimental: as §2, §3

K. pneumoniae ATCC 27799 = details: ATCC 27799
Experimental: as §2, §3

E. coli 045-849 SENTRY = details: 045-849 SENTRY
Experimental: as §2, §3

K. pneumoniae 012-3131 = test system: K. pneumoniae 012-3131
Experimental: as §2, §3

[3] = mouse, serum
Experimental: For this, the peptides and peptidomimetics were dissolved in water, mouse serum was added and the peptide concentration was adjusted to 75 μg/mL. While shaking continuously, the mixture was incubated at 37° C. After 0, 30, 60, 120, 240 and 360 minutes, in each case an aliquot was taken and mixed with 15% aqueous trichloroacetic acid (Carl Roth GmbH & Co. KG; Karlsruhe, Germany). After incubation on ice for a further 10 minutes, the precipitated serum proteins were centrifuged off (5 min, 13400 rpm, MiniSpin, Eppendorf AG, Hamburg, Germany). The supernatant was removed, neutralized with 1 mol/L aqueous sodium hydroxide solution (Fluke Chemie GmbH, Buchs, Switzerland) and stored at −20° C. until analysis.
The supernatants were analyzed by RP-HPLC with a linear acetonitrile gradient (Biosolve BV, Valkenswaard, The Netherlands) in the presence of 0.1% trifluoroacetic acid (TFA, UV-grade, Fluka Chemie GmbH, Buchs, Switzerland) as ion-pairing reagent. The fractions were co-crystallized with α-cyanohydroxycinnamic acid (Bruker Daltonik GmbH; Bremen, Germany) as matrix (5.3 mg/mL in 50% acetonitrile in 0.1% aqueous TFA) and were analyzed with a tandem mass spectrometer (MALDI-TOF/TOF-MS, 4700 Proteomics Analyzer; Applied Biosystems GmbH, Weiterstadt, Germany) in the positive-ion reflector mode. The proportion of intact peptides and their degradation products or metabolites could thus be identified and quantified at the individual time points. The control used was 25% aqueous mouse serum, which was analyzed in parallel for the same time intervals.

Structure (SMILES): CCCNC(=O)[C@H](CCCNC(=N)N)NC(=O)[C@H](CC(N)=O)NC(=O)[C@H](Cc1ccc(O)cc1)NC(=O)[C@@H](NC(=O)[C@H](CCCNC(=N)N)NC(=O)[C@H](CCCNC(=N)N)NC(=O)[C@@H]1CCCN1C(=O)[C@@H]1CCCN1C(=O)[C@H](CCCNC(=N)N)NC(=O)[C@@H]1CCCN1C(=O)[C@H](CCCNC(=N)N)NC(=O)[C@@H]1CCCN1C(=O)[C@H](CC(C)C)NC(=O)[C@H](Cc1ccc(O)cc1)NC(=O)[C@@H]1CCCN1C(=O)[C@@H]1CCCN1C(=O)[C@H](CCCCN)NC(=O)[C@H](CC(=O)O)NC(=O)[C@@H](N)C(C)C)[C@@H](C)CC [SEQ ID NO. 58] (H-VDKPPYLPRPRPPRRIYNR-NHPr)
- half-life [1]: 2 h

Structure (SMILES): CC[C@H](C)[C@H](NC(=O)[C@H](CCCN)NC(=O)[C@H](CCCNC(=N)N)NC(=O)[C@@H]1CCCN1C(=O)[C@@H]1CCCN1C(=O)[C@H](CCCNC(=N)N)NC(=O)[C@@H]1CCCN1C(=O)[C@H](CCCNC(=N)N)NC(=O)[C@@H]1CCCN1C(=O)[C@H](CC(C)C)NC(=O)[C@H](Cc1ccc(O)cc1)NC(=O)[C@@H]1CCCN1C(=O)[C@@H]1CCCN1C(=O)[C@H](CCCCN)NC(=O)[C@H](CC(=O)O)NC(=O)[C@@H](N)C(C)C)C(=O)N[C@@H](Cc1ccc(O)cc1)C(=O)N[C@@H](CC(N)=O)C(=O)N[C@@H](CCCNC(=N)N)C(N)=O [SEQ ID NO. 61, VDKPPYLPRPRPPROIYNR-NH2] (H-VDKPPYLPRPRPPR[Orn]IYNR-NH2)
- half-life [1]: 2 h

Structure (SMILES): CC[C@H](C)[C@H](NC(=O)C[C@H](CCCNC(=N)N)NC(=O)[C@H](CCCNC(=N)N)NC(=O)[C@@H]1CCCN1C(=O)[C@@H]1CCCN1C(=O)[C@H](CCCNC(=N)N)NC(=O)[C@@H]1CCCN1C(=O)[C@H](CCCNC(=N)N)NC(=O)[C@@H]1CCCN1C(=O)[C@H](CC(C)C)NC(=O)[C@H](Cc1ccc(O)cc1)NC(=O)[C@@H]1CCCN1C(=O)[C@@H]1CCCN1C(=O)[C@H](CCCCN)NC(=O)[C@H](CC(=O)O)NC(=O)[C@@H](N)C(C)C)C(=O)N[C@@H](Cc1ccc(O)cc1)C(=O)N[C@@H](CC(N)=O)C(=O)N[C@@H](CCCNC(=N)N)C(N)=O [SEQ ID NO. 62] (H-VDKPPYLPRPRPPR[β3hR]IYNR-NH2)
- half-life [1]: 2.5 h

Structure (SMILES): CCCNC(=O)[C@H](CCCNC(=N)N)NC(=O)[C@H](CC(N)=O)NC(=O)[C@H](Cc1ccc(O)cc1)NC(=O)[C@@H](NC(=O)[C@H](CCCN)NC(=O)[C@H](CCCNC(=N)N)NC(=O)[C@@H]1CCCN1C(=O)[C@@H]1CCCN1C(=O)[C@H](CCCNC(=N)N)NC(=O)[C@@H]1CCCN1C(=O)[C@H](CCCNC(=N)N)NC(=O)[C@@H]1CCCN1C(=O)[C@H](CC(C)C)NC(=O)[C@H](Cc1ccc(O)cc1)NC(=O)[C@@H]1CCCN1C(=O)[C@@H]1CCCN1C(=O)[C@H](CCCCN)NC(=O)[C@H](CC(=O)O)NC(=O)[C@@H](N)C(C)C)[C@@H](C)CC [SEQ ID NO. 71, VDKPPYLPRPRPPROIYNR-NHC3H7] (H-VDKPPYLPRPRPPR[Orn]IYNR-NHPr)
- half-life [1]: > 6 h
- MIC E. coli BL21 A1 (E. coli BL21 A1): 4 µg/mL (≈ 1.67 µM)

Structure (SMILES): CC[C@H](C)[C@H](NC(=O)[C@H](CCCNC(=N)N)NC(=O)[C@H](CCCNC(=N)N)NC(=O)[C@@H]1CCCN1C(=O)[C@@H]1CCCN1C(=O)[C@H](CCCNC(=N)N)NC(=O)[C@@H]1CCCN1C(=O)[C@H](CCCNC(=N)N)NC(=O)[C@@H]1C[C@@H](O)CN1C(=O)[C@H](CC(C)C)NC(=O)[C@H](Cc1ccc(O)cc1)NC(=O)[C@@H]1CCCN1C(=O)[C@@H]1CCCN1C(=O)[C@H](CCCCN)NC(=O)[C@H](CC(=O)O)NC(=O)[C@@H](N)C(C)C)C(=O)N[C@@H](Cc1ccc(O)cc1)C(=O)N[C@@H](CC(N)=O)C(=O)N[C@@H](CCCNC(=N)N)C(=O)O [compound 21] (H-VDKPPYL[Hyp]RPRPPRRIYNR-OH)
- MIC E. coli BL21 A1 (E. coli BL21 A1): 16 µg/mL (≈ 6.65 µM)
- MIC M. luteus 10240 (M. luteus 10240): 16 µg/mL (≈ 6.65 µM)
- MIC E. coli SEQ 102ATCC # BAA-4 57 (E. coli ATCC BAA-457): 64 µg/mL (≈ 26.6 µM)
- MIC K. pneumoniae K6 ATCC 700603 [2]: 64 µg/mL (≈ 26.6 µM)
- MIC E. coli D31 J. Wilson (E. coli D31 J. Wilson): 32 µg/mL (≈ 13.3 µM)
- MIC K. pneumoniae ATCC 27799 (K. pneumoniae ATCC 27799): 128 µg/mL (≈ 53.2 µM)
- MIC E. coli 045-849 SENTRY (E. coli 045-849 SENTRY): 16 µg/mL (≈ 6.65 µM)
- MIC K. pneumoniae 012-3131 (K. pneumoniae 012-3131): 32 µg/mL (≈ 13.3 µM)

Structure (SMILES): CC[C@H](C)[C@H](NC(=O)[C@H](CCCNC(=N)N)NC(=O)[C@H](CCCNC(=N)N)NC(=O)[C@@H]1CCCN1C(=O)[C@@H]1CCCN1C(=O)[C@H](CCCNC(=N)N)NC(=O)[C@@H]1CCCN1C(=O)[C@H](CCCNC(=N)N)NC(=O)[C@@H]1CCCN1C(=O)[C@H](CC(C)C)NC(=O)[C@H](Cc1ccc(O)cc1)NC(=O)[C@@H]1CCCN1C(=O)[C@@H]1C[C@@H](O)CN1C(=O)[C@H](CCCCN)NC(=O)[C@H](CC(=O)O)NC(=O)[C@@H](N)C(C)C)C(=O)N[C@@H](Cc1ccc(O)cc1)C(=O)N[C@@H](CC(N)=O)C(=O)N[C@@H](CCCNC(=N)N)C(=O)O [compound 23] (H-VDK[Hyp]PYLPRPRPPRRIYNR-OH)
- MIC E. coli BL21 A1 (E. coli BL21 A1): 8 µg/mL (≈ 3.32 µM)
- MIC M. luteus 10240 (M. luteus 10240): 16 µg/mL (≈ 6.65 µM)
- MIC E. coli SEQ 102ATCC # BAA-4 57 (E. coli ATCC BAA-457): 32 µg/mL (≈ 13.3 µM)
- MIC K. pneumoniae K6 ATCC 700603 [2]: 32 µg/mL (≈ 13.3 µM)
- MIC E. coli D31 J. Wilson (E. coli D31 J. Wilson): 8 µg/mL (≈ 3.32 µM)
- MIC K. pneumoniae ATCC 27799 (K. pneumoniae ATCC 27799): 64 µg/mL (≈ 26.6 µM)
- MIC E. coli 045-849 SENTRY (E. coli 045-849 SENTRY): 8 µg/mL (≈ 3.32 µM)
- MIC K. pneumoniae 012-3131 (K. pneumoniae 012-3131): 16 µg/mL (≈ 6.65 µM)

Structure (SMILES): CC[C@H](C)[C@H](NC(=O)[C@@H]1C[C@@H](O)CN1C(=O)[C@H](CCCNC(=N)N)NC(=O)[C@@H]1CCCN1C(=O)[C@@H]1CCCN1C(=O)[C@H](CCCNC(=N)N)NC(=O)[C@@H]1CCCN1C(=O)[C@H](CCCNC(=N)N)NC(=O)[C@@H]1CCCN1C(=O)[C@H](CC(C)C)NC(=O)[C@H](Cc1ccc(O)cc1)NC(=O)[C@@H]1CCCN1C(=O)[C@@H]1CCCN1C(=O)[C@H](CCCCN)NC(=O)[C@H](CC(=O)O)NC(=O)[C@@H](N)C(C)C)C(=O)N[C@@H](Cc1ccc(O)cc1)C(=O)N[C@@H](CC(N)=O)C(=O)N[C@@H](CCCNC(=N)N)C(N)=O [compound 25] (H-VDKPPYLPRPRPPR[Hyp]IYNR-NH2)
- half-life [3]: 4 h
- MIC E. coli BL21 A1 (E. coli BL21 A1): 16 µg/mL (≈ 6.82 µM)
- MIC M. luteus 10240 (M. luteus 10240): 8 µg/mL (≈ 3.41 µM)

Structure (SMILES): CC[C@H](C)[C@H](NC(=O)[C@H](CCCCNC(=N)N)NC(=O)[C@H](CCCNC(=N)N)NC(=O)[C@@H]1CCCN1C(=O)[C@@H]1CCCN1C(=O)[C@H](CCCNC(=N)N)NC(=O)[C@@H]1CCCN1C(=O)[C@H](CCCNC(=N)N)NC(=O)[C@@H]1CCCN1C(=O)[C@H](CC(C)C)NC(=O)[C@H](Cc1ccc(O)cc1)NC(=O)[C@@H]1CCCN1C(=O)[C@@H]1CCCN1C(=O)[C@H](CCCCN)NC(=O)[C@H](CC(=O)O)NC(=O)[C@@H](N)C(C)C)C(=O)N[C@@H](Cc1ccc(O)cc1)C(=O)N[C@@H](CC(N)=O)C(=O)N[C@@H](CCCCNC(=N)N)C(N)=O [compound 67] (H-VDKPPYLPRPRPPR[hArg]IYN[hArg]-NH2)
- half-life [3]: 0.917 h
- MIC E. coli BL21 A1 (E. coli BL21 A1): 4 µg/mL (≈ 1.65 µM)
- MIC M. luteus 10240 (M. luteus 10240): 4 µg/mL (≈ 1.65 µM)

Source: patent US8686113B2 (priority 2009, dated 2014)
